Laboratory results from EP1151753B1, “PREVENTIVE AND THERAPEUTIC AGENTS FOR ARTERIOSCLEROSIS” (CCI CORPORATION, priority 1999, dated 2000).

Experiments:
[1] = test system: ICR mice; assay: Test for acute toxicity; assay type: in vivo; details: 500 mg/kg orally, suspension in aqueous 5% gum arabic solution, visual inspection for one week
Procedure: The agent of this invention for preventing and curing arteriosclerosis was tested for acute toxicity with a view to confirming the safety. Groups each formed of three ICR mice aged 4 to 5 weeks were used for the test. The same TMG as mentioned above was suspended as the chromanol glucoside in an aqueous 5% gum arabic solution. The suspension was orally administered to the mice at a dosage of 500 mg/kg as reduced to TMG and the mice were kept under visual inspection for one week. To the control group, the aqueous 5% gum arabic solution was orally administered at a rate of 0.3 ml.

[2] = test system: cholesterol-loaded rabbits; assay: Evaluation of morbid alteration of aorta (Sudan dyeing), cholesterol-loaded rabbit model; assay type: in vivo, New Zealand White (NZW) type rabbits; details: cholesterol-loaded NZW rabbits
Excerpt: In the test, female and male New Zealand White (NZW) type rabbits (SPF: Kitayama Labels K.K.) which were seven weeks old at the time of arrival at the laboratory were subjected to quarantine and two weeks' domestication and visually inspected as to the general condition and, after the absence of abnormality was confirmed, put to use. The body weights at the time of starting administration (at the age of nine weeks) were in the range of 1.8 - 2.2 kg in the case of male rabbits and in the range of 1.6 - 2.0 kg in the case of female rabbits. Throughout the entire duration of the test, the animals were raised as accommodated one each in hanger cages of aluminum installed on a stainless steel rack inside a clean feeding chamber set at a temperature in the range of 20 - 26°, a relative humidity in the range of 40 - 70%, a number of ventilations in the range of 10 - 20 turns/hour, and an illumination time within the range of 12 hours (7.00 - 19:00). They were fed on a commercially available radioactively sterilized solid feed (a product containing 1% of cholesterol, made by Oriental Kobo K.K. and sold under the product code of "RC4") and they were left freely drinking the tap water delivered by an automatic water supplying device.
The dosage of TMG was set at 800 mg/head/day. The TMG was solved in reagent grade ethanol. […]

SMILES: Cc1c(C)c2c(c(C)c1O)CCC(C)(C[C@H]1O[C@H](CO)[C@@H](O)[C@H](O)[C@H]1O)O2 (stereo partly drawn) [TMG, 2-(α-D-glucopyranosyl)methyl-2,5,7,8-tetramethyl chroman-6-ol]
- fatality [1]: None of the mice
- Surface involvement (%) ([2]; area occupied by deposited lipid in whole area of aorta, TMG 800 mg/head/day in feed, 12th week, control 79.7 ± 3.2, p < 0.01): 50.2 ± 5.7 %
- occurrence of the atherosclerosis ([2]; TMG 800 mg/head/day for 12 weeks): significantly repressing
